Results: publication PMC9256790 (Molecular cancer therapeutics, 2022)

Assays:
[1] = test system: orthotopic MDA-MB-231 xenografts; experiment: Orthotopic MDA-MB-231 xenograft in comparison with CA4P; assay type: in vivo, mice
MDA-MB-468 = experiment: Cell proliferation; assay type: cell-based; details: Homo sapiens, MDA-MB-468, read-out: Mean IC50 ± SEM
[2] = test system: MDA-MB-231 and MDA-MB-468 cells; experiment: Cell cycle analysis; assay type: cell-based, Human; details: 10 nM; 24 h
Mia PaCa-2/ColxR = experiment: Cell proliferation; assay type: cell-based; details: Homo sapiens, MIA PaCa-2, read-out: Mean IC50 ± SEM
MDA-MB-231 cells [3] = experiment: Immunofluorescence staining of microtubules; assay type: cell-based, Human; details: 24 h
[4] = test system: MDA-MB-231 or MDA-MB-468 cells; experiment: Colony formation assay; assay type: cell-based, Human; details: 1 to 4 nM; both TNBC cell lines
cHCI-2 = experiment: Cell proliferation; assay type: cell-based, Human; details: for proliferation of cHCI-2 cells: 10 nM, 5 days of treatment
cHCI-10 = experiment: Cell proliferation; assay type: cell-based, Human; details: for proliferation of cHCI-10 cells: 10 nM, 5 days of treatment
MDA-MB-468/TxR = experiment: Cell proliferation; assay type: cell-based; details: Homo sapiens, MDA-MB-468, read-out: Mean IC50 ± SEM
MDA-MB-231/TxR = experiment: Cell proliferation; assay type: cell-based; details: Homo sapiens, read-out: Mean IC50 ± SEM
Mia PaCa-2 = experiment: Cell proliferation; assay type: cell-based; details: Homo sapiens, MIA PaCa-2, read-out: Mean IC50 ± SEM
MDA-MB-231 cells [5] = experiment: Wound healing; assay type: cell-based, Human; details: 4 nM, 24 h
[6] = Homo sapiens, 120 h, read-out: Mean IC50 ± SEM

SMILES	average tumor volume vs vehicle ([1]; 28 mg/kg (equivalent to 20 mg/kg CA4) IP 5 times/week)	body weight ([1]; 28 mg/kg IP 5 times/week)	IC50 (MDA-MB-468) [nM]	cell cycle distribution [2]	IC50 (Mia PaCa-2/ColxR) [nM]	microtubule structure (MDA-MB-231 cells [3]; 2.5 nM or 5 nM, interphase and mitotic phase)	colony formation [4]	proliferation of cHCI-2 cells (cHCI-2)	IC50 (cHCI-2; [6]) [nM]	proliferation of cHCI-10 cells (cHCI-10)	IC50 (cHCI-10; [6]) [nM]	IC50 (MDA-MB-468/TxR) [nM]	IC50 (MDA-MB-231/TxR) [nM]	IC50 (Mia PaCa-2) [nM]	wound closure (MDA-MB-231 cells [5])	microtubule structure (MDA-MB-231 cells [3]; 2.5 nM)	microtubule structure (MDA-MB-231 cells [3]; 5 nM, interphase)
COc1ccc(/C=C\c2cc(OC)c(OC)c(OC)c2)cc1OP(=O)(O)O [CA4P, fosbretabulin]	significantly reduced	no significant loss in body weight															
CC(=O)O[C@H]1C(=O)[C@@]2(C)[C@H]([C@H](OC(=O)c3ccccc3)[C@]3(O)C[C@H](OC(=O)[C@H](O)[C@@H](NC(=O)c4ccccc4)c4ccccc4)C(C)=C1C3(C)C)[C@]1(OC(C)=O)CO[C@@H]1C[C@@H]2O [Paclitaxel]			2 ± 0.2	arrested the cells into the M phase and the subG1 phase	10.6 ± 1.1	condensed microtubules	robustly inhibited colony formation	reduced the proliferation	12.7 ± 5.8	no activity	43.6 ± 8.2	152 ± 23.8	112 ± 37.8	5.5 ± 0.6			
COc1cc2c(c(OC)c1OC)-c1ccc(OC)c(=O)cc1[C@@H](NC(C)=O)CC2 [Colchicine]				little effect on cell cycle progression			no effect	limited effects		limited effects					closed similar to untreated control cells	similarly organized and intact microtubule structures as untreated cells	disseminated and depolymerized microtubule arrangement
